Measurements as given in patent publication US11173160B2 (UNIVERSITY OF PITTSBURGH—OF THE COMMONWEALTH SYSTEM OF …, priority 2019, dated 2021).
Where two headings read alike, the source gives them in different places.

Legend:
[1] = molecular target: Aurora A (Homo sapiens, UniProt O14965); conditions: cited from earlier work
[2] = molecular target: CaMKVI (Homo sapiens, UniProt Q16566); conditions: cited from earlier work
[3] = molecular target: Pim-3 (Homo sapiens, UniProt Q86V86); conditions: cited from earlier work
[4] = system: four DIPG cell lines; experiment: viability of DIPG cell lines treated in vitro with TG02; assay type: cell-based, human
Experimental: Direct cell counts were performed using the Countess II FL Automated Cell Counter (ThermoFisher Scientific). Alamar blue viability (ThermoFisher Scientific) and the 5-bromo-2′-deoxyuridine (BrdU) incorporated cell proliferation assay (Cell Signaling Technology Cat #6813) were performed using the manufacturer's standard protocol. EC50 curve analysis was performed using raw fluorescent Alamar blue values that were inputted into PRISM 7.0. Drug concentrations were log 10 transformed and values normalized to percent viability with respect to vehicle treated cells. EC50 values were interpolated from a log inhibitor vs. normalized response with variable slope using a least square fit model.

[5] = molecular target: IRAK4 (Homo sapiens, UniProt Q9NWZ3); conditions: cited from earlier work
[6] = cited from earlier work
[7] = molecular target: GSK3α (Homo sapiens, UniProt P49840); conditions: cited from earlier work
[8] = cited from earlier work; remark: listed apart in the source
[9] = system: ERK5 phosphorylation in DIPG-007 and DIPG-IV cells; experiment: Western blot of ERK5 phosphorylation in DIPG cells; assay type: cell-based, human; conditions: 50 nM
Experimental: Cell pellets were lysed in PLC lysis buffer containing protease and phosphatase inhibitors (Roche Inc.). Protein lysates were quantified using the bicinchoninic acid (BCA) assay (Pierce Chemical Co., Rockford, Ill.). 30 μg of total protein lysate was loaded in 10% SDS-PAGE gels and electrophoresed. Proteins were transferred to PVDF membranes using a semi-dry transfer apparatus (Bio-Rad). Membranes were blocked for one hour and probed for various proteins overnight in 5% non-fat milk or 5% BSA in Tris Buffered Saline Solution, 0.5% Tween-20 (TBST) or Phosphate Buffered Saline Solution with 0.5% Tween-20 (PBST). Membranes were washed for 5 mins in TBST (3×) and incubated with horseradish peroxidase-conjugated antibodies specific for the primary antibody (BioRad Laboratories, Inc., CA, USA). Binding was detected using Chemiluminescence Reagent Plus (PerkinElmer Inc., MA, USA).

[10] = molecular target: PDK1 (Homo sapiens, UniProt O15530); conditions: cited from earlier work
[11] = molecular target: PAK3 (Homo sapiens, UniProt O75914); conditions: cited from earlier work
[12] = molecular target: FLT3 (Homo sapiens, UniProt P36888); conditions: Source Invitrogen; 10-point titration in duplicates, done once; cited from earlier work
[13] = system: DIPG-13p orthotopic xenografts; experiment: DIPG-13p orthotopic xenograft model; assay type: in vivo, mice; conditions: for survival vs vehicle: 20 mg/kg/day for 5 days, 2 days rest
Experimental: All animal procedures were carried out ethically according to animal user protocols approved by Institutional Animal Care Committee (IACUC). 4-6 week-old non-obese diabetic severe combined immune deficiency male or female mice (NOD-SCID-Prkdc^scid) were injected with 1×10^5 SU-DIPG-13p cells or 1×10^5 SF8628 DIPG cells. Cells were re-suspended in 2 μl of PBS and injected into the pons/midbrain using a stereotactic frame (Stoelting) and automated cell injector (Stoelting) with cells delivered over 4 minutes. Coordinates were as follows from the Lambda suture (x=0.8 mm, y=−0.8 mm, z=−5.0 mm). […] Mice were treated for two cycles (5 days on, with two days off per cycle). Mice were sacrificed at sign of neurological duress and brains were extracted and fixed in 4% PFA.
Also, the present disclosure used two established cell lines derived from transgenic mouse models of DIPG. Both lines are p53 null and express PDGFB, differing only in their H3.3 mutation status.
In a second DIPG mouse model, mice were injected with 1×10^5 DIPG13p cells in the midbrain of NOD-SCID gamma mice.
For each cycle, the compounds were administered 20 mg/kg/day for 5 days, followed with 2 days of rest period. Each mice received 2 cycles of treatment.

[14] = cited from earlier work; remark: listed apart in the source
[15] = system: MYC in DIPG-IV and SF8628 cells; experiment: Western blot of phospho MYC S62 and total MYC; assay type: cell-based, human; conditions: TG02 100 nM
Experimental: FIGS. 6A-6H provide that ERK5 inhibition reduced MYC protein stability. (6A) Schematic of identifying differentially expressed phospho-proteins in DIPG-IV cells expressing ERK5 and ERK5 knockdown. (6B) Ratio of phospho:total protein changes in ERK5 knockdown versus ERK5 control DIPG-IV cells. […] (6D) Western blot of MYC in DIPG-IV cells treated with Dox and MG132 (10 uM). (6E) Immunoprecipitation of MYC and ERK5 followed by western blot of ERK5 and MYC. […] (6G) Western blot of DIPG cells re-transfected with constitutively active MYC S62D in presence of ERK5 loss. (6H) Cell doubling times of control and ERK5 knockdown DIPG cells and the effect of MYC S62D rescue. SF8628 cells (left) and DIPG-IV cells (right).
Cell pellets were lysed in PLC lysis buffer containing protease and phosphatase inhibitors (Roche Inc.). Protein lysates were quantified using the bicinchoninic acid (BCA) assay (Pierce Chemical Co., Rockford, Ill.). 30 μg of total protein lysate was loaded in 10% SDS-PAGE gels and electrophoresed. Proteins were transferred to PVDF membranes using a semi-dry transfer apparatus (Bio-Rad). […] Binding was detected using Chemiluminescence Reagent Plus (PerkinElmer Inc., MA, USA).

[16] = molecular target: ASK1 (Homo sapiens, UniProt Q99683); conditions: cited from earlier work
[17] = molecular target: (Homo sapiens, UniProt O15264); conditions: Source Invitrogen; 10-point titration in duplicates, done once; cited from earlier work
[18] = molecular target: PKA (Homo sapiens, UniProt P17612); conditions: cited from earlier work
[19] = molecular target: Kit (Homo sapiens, UniProt P10721); conditions: cited from earlier work
[20] = molecular target: PAK2 (Homo sapiens, UniProt Q13177); conditions: cited from earlier work
PAK2, sequence (Q13177 whole entry): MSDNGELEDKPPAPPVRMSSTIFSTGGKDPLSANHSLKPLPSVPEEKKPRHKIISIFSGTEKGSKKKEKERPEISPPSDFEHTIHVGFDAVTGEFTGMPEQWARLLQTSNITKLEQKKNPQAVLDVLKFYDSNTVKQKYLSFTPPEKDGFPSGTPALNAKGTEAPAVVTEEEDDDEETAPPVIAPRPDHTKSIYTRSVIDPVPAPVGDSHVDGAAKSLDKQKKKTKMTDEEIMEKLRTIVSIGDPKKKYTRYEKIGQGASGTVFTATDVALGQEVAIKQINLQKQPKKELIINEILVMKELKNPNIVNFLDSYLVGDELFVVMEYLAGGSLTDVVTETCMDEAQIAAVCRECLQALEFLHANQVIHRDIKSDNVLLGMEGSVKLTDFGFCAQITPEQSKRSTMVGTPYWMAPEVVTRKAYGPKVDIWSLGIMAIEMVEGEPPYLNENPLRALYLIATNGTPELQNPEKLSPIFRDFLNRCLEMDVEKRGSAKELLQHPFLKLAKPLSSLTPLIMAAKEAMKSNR

(Homo sapiens, UniProt O15264), sequence (O15264 whole entry): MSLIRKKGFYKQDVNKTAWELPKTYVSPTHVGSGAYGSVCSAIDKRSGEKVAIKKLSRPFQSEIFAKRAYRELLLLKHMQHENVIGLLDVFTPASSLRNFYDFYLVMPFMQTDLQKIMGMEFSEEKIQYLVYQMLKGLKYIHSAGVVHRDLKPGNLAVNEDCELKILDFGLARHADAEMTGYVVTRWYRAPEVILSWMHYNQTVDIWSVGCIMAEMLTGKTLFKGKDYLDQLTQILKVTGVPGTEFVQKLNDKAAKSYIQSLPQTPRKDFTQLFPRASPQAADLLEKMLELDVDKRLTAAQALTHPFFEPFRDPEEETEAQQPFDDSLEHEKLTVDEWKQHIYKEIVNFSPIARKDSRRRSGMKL
PAK3, sequence (O75914 whole entry): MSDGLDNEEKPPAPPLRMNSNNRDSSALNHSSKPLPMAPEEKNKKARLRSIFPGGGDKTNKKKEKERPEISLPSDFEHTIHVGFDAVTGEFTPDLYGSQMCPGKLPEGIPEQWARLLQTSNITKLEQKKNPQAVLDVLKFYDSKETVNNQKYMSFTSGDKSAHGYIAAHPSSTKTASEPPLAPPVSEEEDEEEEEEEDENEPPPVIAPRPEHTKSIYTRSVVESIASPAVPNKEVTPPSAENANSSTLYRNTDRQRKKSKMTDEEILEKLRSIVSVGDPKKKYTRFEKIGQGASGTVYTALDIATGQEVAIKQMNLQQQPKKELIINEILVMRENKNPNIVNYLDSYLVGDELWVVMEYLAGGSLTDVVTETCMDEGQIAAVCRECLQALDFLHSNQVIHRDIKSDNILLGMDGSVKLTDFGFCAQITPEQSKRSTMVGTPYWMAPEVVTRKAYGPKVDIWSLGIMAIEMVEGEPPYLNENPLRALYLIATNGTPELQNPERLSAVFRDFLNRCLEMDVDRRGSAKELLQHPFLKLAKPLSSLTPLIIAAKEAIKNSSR
Kit, sequence (P10721 26-976): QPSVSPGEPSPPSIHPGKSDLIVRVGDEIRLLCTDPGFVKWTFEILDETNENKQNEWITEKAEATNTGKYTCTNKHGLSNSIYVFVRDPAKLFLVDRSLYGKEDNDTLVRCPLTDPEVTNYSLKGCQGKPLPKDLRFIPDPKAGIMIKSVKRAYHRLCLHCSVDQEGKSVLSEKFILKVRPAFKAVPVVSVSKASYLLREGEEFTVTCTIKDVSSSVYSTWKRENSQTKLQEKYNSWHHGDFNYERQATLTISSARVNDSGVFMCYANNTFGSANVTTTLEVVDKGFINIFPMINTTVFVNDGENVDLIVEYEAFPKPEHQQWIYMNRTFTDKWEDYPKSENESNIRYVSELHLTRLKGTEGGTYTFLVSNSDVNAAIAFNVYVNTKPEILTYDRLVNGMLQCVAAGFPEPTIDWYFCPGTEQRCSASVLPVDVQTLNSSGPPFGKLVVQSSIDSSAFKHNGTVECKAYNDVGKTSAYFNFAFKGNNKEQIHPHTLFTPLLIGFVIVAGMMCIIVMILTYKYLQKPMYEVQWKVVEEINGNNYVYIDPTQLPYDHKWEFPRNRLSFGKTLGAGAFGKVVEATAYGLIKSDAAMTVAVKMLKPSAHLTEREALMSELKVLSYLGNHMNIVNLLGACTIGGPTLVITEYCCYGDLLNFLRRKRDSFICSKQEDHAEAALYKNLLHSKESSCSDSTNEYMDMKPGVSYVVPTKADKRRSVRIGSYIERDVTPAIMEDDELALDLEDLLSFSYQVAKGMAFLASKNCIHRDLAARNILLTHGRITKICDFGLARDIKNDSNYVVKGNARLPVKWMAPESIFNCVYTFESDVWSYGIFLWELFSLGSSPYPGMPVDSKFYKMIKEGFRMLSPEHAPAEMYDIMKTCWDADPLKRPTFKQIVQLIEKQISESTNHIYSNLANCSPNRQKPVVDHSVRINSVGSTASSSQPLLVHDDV
PDK1, sequence (O15530 whole entry): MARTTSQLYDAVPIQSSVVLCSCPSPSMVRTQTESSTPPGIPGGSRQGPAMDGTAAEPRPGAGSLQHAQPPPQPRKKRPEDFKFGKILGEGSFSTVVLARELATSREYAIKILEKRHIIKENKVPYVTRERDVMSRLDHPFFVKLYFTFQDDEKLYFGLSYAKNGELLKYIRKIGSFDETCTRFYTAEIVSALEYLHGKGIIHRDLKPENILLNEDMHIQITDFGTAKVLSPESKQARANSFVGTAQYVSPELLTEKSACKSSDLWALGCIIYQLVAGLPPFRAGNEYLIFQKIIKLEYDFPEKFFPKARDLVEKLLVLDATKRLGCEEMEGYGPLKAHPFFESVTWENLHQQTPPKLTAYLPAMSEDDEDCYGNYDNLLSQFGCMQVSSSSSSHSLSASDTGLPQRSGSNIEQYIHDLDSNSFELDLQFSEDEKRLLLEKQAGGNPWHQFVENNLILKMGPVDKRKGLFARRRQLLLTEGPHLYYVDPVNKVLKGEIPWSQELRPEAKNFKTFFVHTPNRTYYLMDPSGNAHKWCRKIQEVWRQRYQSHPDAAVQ
FLT3, sequence (P36888 27-993): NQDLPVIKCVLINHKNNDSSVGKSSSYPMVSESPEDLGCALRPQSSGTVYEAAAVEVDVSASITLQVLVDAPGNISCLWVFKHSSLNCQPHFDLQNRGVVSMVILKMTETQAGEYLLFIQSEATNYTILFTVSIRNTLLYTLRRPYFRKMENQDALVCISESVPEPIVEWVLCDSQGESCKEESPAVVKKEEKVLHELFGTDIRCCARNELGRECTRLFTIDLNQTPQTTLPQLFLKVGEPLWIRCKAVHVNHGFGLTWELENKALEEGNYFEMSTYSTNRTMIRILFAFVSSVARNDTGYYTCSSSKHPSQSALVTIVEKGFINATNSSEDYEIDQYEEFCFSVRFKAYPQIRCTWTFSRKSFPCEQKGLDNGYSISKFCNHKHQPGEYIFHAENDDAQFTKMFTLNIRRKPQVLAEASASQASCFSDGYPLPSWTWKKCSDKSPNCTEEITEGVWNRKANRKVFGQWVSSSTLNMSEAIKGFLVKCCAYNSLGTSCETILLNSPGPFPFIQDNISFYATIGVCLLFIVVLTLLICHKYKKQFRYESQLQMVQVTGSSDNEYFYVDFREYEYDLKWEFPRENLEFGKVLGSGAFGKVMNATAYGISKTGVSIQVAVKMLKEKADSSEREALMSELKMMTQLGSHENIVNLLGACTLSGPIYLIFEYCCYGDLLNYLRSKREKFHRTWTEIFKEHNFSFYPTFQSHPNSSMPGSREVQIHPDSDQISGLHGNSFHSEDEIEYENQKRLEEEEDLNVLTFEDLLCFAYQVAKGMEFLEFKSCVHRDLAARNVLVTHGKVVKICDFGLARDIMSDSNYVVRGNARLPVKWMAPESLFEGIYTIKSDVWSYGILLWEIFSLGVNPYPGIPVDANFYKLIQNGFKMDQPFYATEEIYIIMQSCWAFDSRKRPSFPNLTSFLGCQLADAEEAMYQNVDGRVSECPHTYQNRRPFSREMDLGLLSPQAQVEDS
Aurora A, sequence (O14965 whole entry): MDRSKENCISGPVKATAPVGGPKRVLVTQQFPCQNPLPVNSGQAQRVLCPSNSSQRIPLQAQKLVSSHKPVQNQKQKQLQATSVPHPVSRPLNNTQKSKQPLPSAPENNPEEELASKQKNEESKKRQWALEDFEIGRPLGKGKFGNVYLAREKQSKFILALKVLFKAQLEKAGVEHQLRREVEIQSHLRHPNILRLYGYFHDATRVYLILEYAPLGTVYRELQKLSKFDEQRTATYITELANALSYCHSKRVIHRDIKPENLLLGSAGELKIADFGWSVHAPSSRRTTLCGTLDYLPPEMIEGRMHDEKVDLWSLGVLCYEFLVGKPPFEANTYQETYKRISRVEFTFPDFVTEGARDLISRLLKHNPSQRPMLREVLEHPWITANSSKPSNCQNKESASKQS

CN1C/C=C/CCOc2cccc(c2)-c2ccnc(n2)Nc2cccc(c2)C1 [TG02, (16E)-14-methyl-20-oxa-5,7,14,27-tetraazatetracyclo[19.3.1.12,6.18,12]heptacosa-1(25),2(27),3,5,8(26),9,11,16,21,23-decaene]
inhibition at 100 nm [1]: less than 50% | inhibition at 100 nm [2]: less than 50% | inhibition at 100 nm [3]: less than 50% | IC50 ([4]; Homo sapiens, read-out: IC50 of TG02 in vitro against DIPG cell lines, approximate): ~100 nM | EC50 ([4]; Homo sapiens, median of four DIPG cell lines in vitro, read-out: median EC50 (decreased viability)): 75 nM | EC50 ([4]; Homo sapiens, range over four DIPG cell lines in vitro, read-out: EC50 range (decreased viability)): 60 to 93 nM | apoptosis ([4]; four DIPG cell lines in vitro): increased apoptosis | inhibition at 100 nm [5]: less than 50% | inhibition at 100 nm [6]: less than 50% | inhibition at 100 nm [7]: less than 50% | dose-limiting toxicities (DLTs), DD regimen ([8]; human, in vivo): grade 3 diarrhea (n=1) at 200 mg of TG02, and grade 4 neutropenia and grade 3 increase in ALT (n=1) at 250 mg of TG02 | dose-limiting toxicities (DLTs), MN regimen ([8]; human, in vivo): grade 4 lymphopenia (n=2) and increase in ALT (n=1) at 250 mg of TG02 | MTD, metronomic (MN) temozolomide regimen ([8]; temozolomide 50 mg/m^2): 200 mg | MTD, dose-dense (DD) temozolomide regimen ([8]; temozolomide 125 m/m^2 per day 7 days on/7 days off): 250 mg | ERK5 Thr218/Tyr220 phosphorylation (regulated by MEK5) [9]: did not inhibit | ERK5 auto-phosphorylation and ERK5 activity sites (Ser731 and Thr733) [9]: confirmed to inhibit | inhibition at 100 nm [10]: less than 50% | inhibition at 100 nm [11]: less than 50% | IC50 [12]: 19 nM | K167 expression (proliferation marker) ([13]; 20 mg/kg, 2 cycles, vs vehicle): significantly reduced K167 expression | survival vs vehicle ([13]; 2 cycles): statistically significant increased median survival | survival vs vehicle ([13]; 2 cycles, listed as TG02 obtained from Adastra Pharmaceuticals): extended survival | median survival ([13]; TG02 20 mg/kg, 2 cycles of 5 days on 2 days off, vehicle 22.5 days): 40 days | most common toxicities (≥20%) ([14]; adults with acute leukemia): nausea, vomiting, fatigue, abdominal pain, diarrhea, constipation, and hypophosphatemia | serious adverse events ([14]; adults with hematologic malignancies): nausea and vomiting (grades 2 and 3), fatigue (grade 3), altered mental status (grade 2), rash (grade 3), thrombocytopenia (grade 4), and neutropenic fever with sepsis (grade 3) | maximum tolerated dose (MTD) ([14]; intermittent TG02 with fixed doses of carfilzomib, twice a week for 21 of 28 days): 250 mg per dose | phospho MYC (S62) and total MYC [15]: reduced phospho and total MYC | inhibition at 100 nm [16]: less than 50% | IC50 [17]: 56 nM | inhibition at 100 nm [18]: less than 50% | inhibition at 100 nm [19]: less than 50% | inhibition at 100 nm [20]: less than 50%
